Data: article PMC3063246, “Corticotropin Releasing Factor-Induced CREB Activation in Striatal Neurons Occurs via a Novel Gβγ Signaling Pathway” (PLoS ONE, 2011)
Entries after “also recorded” stand apart in the source; their conditions may differ. Read-outs that look alike come from different tables or passages of the source. No end group written: not given here.

What was measured:
[1] = test system: cAMP in cultured striatal neurons; assay: cAMP assay (Parameter cAMP kit) in cultured striatal neurons; assay type: cell-based, rat; settings: IBMX 75 µM
[2] = test system: CREB phosphorylation in cultured striatal neurons; settings: ISO via a Gαs pathway in striatal neurons; cited from earlier work
Method: To test for a Gβγ-dependent mechanism in CRF-induced CREB phosphorylation, we utilized the Gβγ-specific inhibitor gallein (75 µM). […] To ensure that the effect of gallein was specific to CRF and not dampening all G-protein signaling, we stimulated our neurons with ISO (10 µM) in the presence of gallein. […] Indeed, this was in fact the ...

[3] = test system: Akt/PKB; settings: cited from earlier work
From the text: (§1) Supplement pone.0018114.s002.xlsx, sheet "Sheet1" | column: Target (notes)

[4] = test system: CRF-induced CREB phosphorylation in striatal neurons; assay: Block of CRF-induced CREB phosphorylation; assay type: cell-based, rat
[5] = test system: ISO-induced cAMP accumulation; assay: Block of ISO-induced cAMP accumulation; assay type: cell-based, rat; settings: SQ22536 90 µM; ISO 10 µM; IBMX 75 µM
[6] = test system: depolarization-induced CREB phosphorylation; assay type: cell-based
[7] = test system: CREB phosphorylation in cultured striatal neurons; assay type: cell-based, rat
[8] = test system: PI3K; settings: 100 nM; cited from earlier work
From the text: as §1

[9] = molecular target: CRFR2; settings: cited from earlier work
From the text: as §1

[10] = molecular target: CRFR1; set-up: method as in 5 sources, ref 26 = [26]; PMID 9918582; 26 Perrin MH Sutton SW Cervini LA Rivier JE Vale WW 1999 Comparison of an agonist, urocortin, and an antagonist, astressin, as radioligands for characterization of corticotropin-releasing factor recep ||| ref [73] (a number printed in a supplementary file, which may have a reference list of its own: not looked up in the article's list) ||| ref [74] (a number printed in a supplementary file, which may have a reference list of its own: not looked up in the article's list) ||| ref [75] (a number printed in a supplementary file, which may have a reference list of its own: not looked up in the article's list) ||| ref [76] (a number printed in a supplementary file, which may have a reference list of its own: not looked up in the article's list); settings: cited from earlier work
[11] = test system: rewarding effects of drugs of abuse / sucrose reward; settings: cited from earlier work
From the text: Human individuals with a history of chronic stress are more likely to become addicts, and previously abstinent addicts are more likely to relapse following exposure to an acute stressor [1]–[3]. […] And while research thus far has focused on the NAc, CRF neurotransmission is also an essential component to connectivity in the dorsal striatum [19]–[22].

[12] = test system: CREB in cerebellar and hippocampal neurons; settings: cited from earlier work
From the text: Separate from CREB/MAPK signaling, CRF also affects the activity of various other kinases, second messengers, ion channels and neurotransmitter receptors [45]–[51]. This diversity in cellular effects is not surprising when one considers the ability of CRF ...

[13] = test system: total CREB in cultured striatal neurons; assay: Immunocytochemistry of total CREB; assay type: cell-based, rat; settings: CRF 40 nM, 15 min, vs vehicle; P = 0.67, Student's two-tailed T-test
[14] = test system: mGluR1/5 mediated calcium transienst; settings: 5 mM as printed; ref unpublished observations; cited from earlier work
From the text: as §1

[15] = molecular target: PKA; settings: cited from earlier work
From the text: as §1

[16] = test system: depolarization-induced CREB phosphorylation; set-up: method as in 3 sources, ref 36 = [36]; PMID 11226322; doi:10.1073/pnas.051634198; 36 Wu GY Deisseroth K Tsien RW 2001 Activity-dependent CREB phosphorylation: convergence of a fast, sensitive calmodulin kinase pathway and a slow, less sensitive mitogen-activated protein kinase path ||| ref [36] (a number printed in a supplementary file, which may have a reference list of its own: not looked up in the article's list) ||| ref [71] (a number printed in a supplementary file, which may have a reference list of its own: not looked up in the article's list); settings: 2 µM; cited from earlier work
[17] = test system: STR-induced CREB phosphorylation; assay: Block of stressin-1-induced CREB phosphorylation; assay type: cell-based, rat; settings: CP154526 100 nM; stressin-1 70 nM, 15 min
[18] = molecular target: CRF receptor 1 (UniProt P34998); settings: cited from earlier work
[19] = inhibitor 5 µM, 30 min prior and concurrently, CRF 15 min
[20] = inhibitor 1 µM, 30 min prior and concurrently, CRF 15 min, data not shown
[21] = inhibitor 500 nM, 30 min prior and concurrently, CRF 15 min, data not shown
[22] = inhibitor 10 µM, 30 min prior and concurrently, CRF 15 min
[23] = inhibitor 100 nM, 30 min prior and concurrently, CRF 15 min

CRF receptor 1, sequence (P34998 24-415): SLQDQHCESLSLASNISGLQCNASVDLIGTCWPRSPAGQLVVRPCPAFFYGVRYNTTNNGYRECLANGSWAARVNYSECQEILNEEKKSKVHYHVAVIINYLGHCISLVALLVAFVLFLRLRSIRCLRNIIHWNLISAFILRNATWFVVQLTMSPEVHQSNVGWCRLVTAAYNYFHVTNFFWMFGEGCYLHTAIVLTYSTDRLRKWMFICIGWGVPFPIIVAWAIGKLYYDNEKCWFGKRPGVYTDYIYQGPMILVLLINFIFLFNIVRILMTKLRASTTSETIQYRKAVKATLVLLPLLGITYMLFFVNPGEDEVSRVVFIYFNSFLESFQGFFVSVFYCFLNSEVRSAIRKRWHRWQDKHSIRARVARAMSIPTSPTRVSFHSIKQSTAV

Compound: CC(C)NCC(O)c1ccc(O)c(O)c1 (stereo not shown) [isoproterenol]
- cAMP concentration ([1]; ISO 10 µM, 15 min, positive control): significant increase in cAMP
- CREB phosphorylation [2]: leads to CREB phosphorylation

Compound: CCN(CC)CCCCN1c2ccccc2Oc2ccc(Cl)cc21 [10-DEBC]
- IC50 [3]: 2 to 6 µM
- effect on CRF-induced CREB phosphorylation [4, 19]: failed to affect CRF-induced CREB phosphorylation

Compound: Nc1ncnc2c1ncn2C1CCCO1 (stereo not shown) [SQ22536]
- effect on ISO-induced cAMP formation [5]: completely blocked ISO-induced cAMP accumulation; also recorded: completely blocked ISO-induced cAMP formation
- effect on CRF-induced CREB phosphorylation ([4]; inhibitor 90 µM, 30 min prior and concurrently, CRF 15 min): had no effect on CRF-induced CREB phosphorylation; also recorded: failed to affect CRF-induced CREB phosphorylation

Compound: CCCCCCOC(=O)[C@]1(O)C[C@@H]2O[C@@]1(C)n1c3ccccc3c3c4c(c5c6ccccc6n2c5c31)C(=O)NC4 [KT5720]
- effect on CRF-induced CREB phosphorylation [4, 20]: failed to eliminate CRF-induced CREB phosphorylation

Compound: cholera toxin [CTX]
- effect on 60 mM K+ depolarization-induced (MAPK-dependent) CREB phosphorylation [6]: had no effect on MAPK-dependent CREB phosphorylation; also recorded: unaffected
- effect on CRF-induced CREB phosphorylation [4]: blocked CRF-induced CREB phosphorylation; also recorded: complete block of CRF-induced CREB phosphorylation
- pCREB after toxin alone [7]: transient increase in pCREB on its own
- pCREB signal after toxin alone [7]: 2809.7±104.5

Compound: COC[C@H]1OC(=O)c2coc3c2[C@@]1(C)C1=C(C3=O)[C@@H]2CCC(=O)[C@@]2(C)C[C@H]1OC(C)=O [wortmannin]
- PI3K inhibition [8]: PI3K (100 nM inhibits PI3K)
- effect on CRF-induced CREB phosphorylation [4, 21]: failed to affect CRF-induced CREB phosphorylation

Compound: astressin
- Ki [9]: 1.5 to 2.8 nM
- effect on CRF-induced CREB phosphorylation ([4]; inhibitor 50 nM, 30 min prior and concurrently, CRF 15 min): completely abolished CRF-induced CREB phosphorylation; also recorded: blocked
- Ki [10]: 1.6 to 2 nM

Compound: corticotropin releasing factor [CRF]
- cAMP concentration ([1]; CRF 40 nM, time course of pCREB): failed to induce any measurable increase in cAMP concentration
- cAMP formation in the presence of MβCD ([1]; CRF 4 µM, 15 min, MβCD 10 mM): increased cAMP concentrations; also recorded: significant increase in cAMP formation
- cAMP formation in the presence of MβCD relative to isoproterenol ([1]; CRF 4 µM, 15 min, MβCD 10 mM): not to the levels seen with isoproterenol
- cAMP accumulation ([1]; CRF, various concentrations up to and including 400 nM, 15 min): failed to increase cAMP accumulation; also recorded: failed to induce a significant accumulation of cAMP
- effect on incentive salience of a sucrose reward ([11]; CRF acting in NAc): enhances the incentive salience of a sucrose reward
- effect on rewarding effects of drugs of abuse [11]: potentiate the rewarding effects of drugs of abuse
- CREB activation [12]: activate CREB
- total CREB staining [13]: had no effect on total CREB staining; also recorded: showed no change in total CREB staining
- binding affinity of CRF for CRFR1 [10]: 5 to 10 nM
- time constant τ of CRF-induced CREB phosphorylation ([7]; 40 nM CRF, time course): ~3.5 min
- CREB phosphorylation ([7]; CRF 40 nM, 15 min, vs vehicle (NS), p<0.0001, ~25 cells per group): significantly increased CREB phosphorylation; also recorded: exhibited increased CREB phosphorylation
- share of striatal neurons with shift in pCREB fluorescence intensity ([7]; CRF 40 nM, 15 min, cumulative histogram): approximately 80%
- effect of extended exposure on CREB phosphorylation ([7]; CRF 40 nM, 1 hr): apparent desensitization
- CREB phosphorylation, NAc enriched culture ([7]; NAc "enriched" cultures, data not shown): similarly robust increases in CREB phosphorylation
- EC50 ([7]; cultured striatal neurons from 1- to 2-day old rat pups, 8-10 d.i.v., nuclear pCREB (Ser133) immunofluorescence, 15 min, nonlinear curve fit): 0.3 nM
- CREB phosphorylation, dorsal striatum enriched culture ([7]; dorsal striatum "enriched" cultures, data not shown): similarly robust increases in CREB phosphorylation
- CREB phosphorylation in mCherry-transfected neurons ([7]; neurons transfected with mCherry alone): robust CRF-induced CREB phosphorylation

Compound: N#CC(=C(/N)Sc1ccccc1N)/C(C#N)=C(/N)Sc1ccccc1N [U0126]
- effect on CRF-induced CREB phosphorylation [4, 22]: blocked CRF-induced CREB phosphorylation

Compound: antisauvagine-30
- Kd [9]: 1.4 nM
- effect on CRF-induced CREB phosphorylation [4, 23]: failed to block CRF-induced CREB phosphorylation; also recorded: had no effect on CRF-induced CREB phosphorylation
- Kd [10]: 154 nM

Compound: CC(=O)OCOC(=O)CN(CC(=O)OCOC(C)=O)c1ccccc1OCCOc1ccccc1N(CC(=O)OCOC(C)=O)CC(=O)OCOC(C)=O [BAPTA-AM]
- effect on mGluR1/5 mediated calcium transients [14]: Calcium (5 mM prevents mGluR1/5 mediated calcium transienst)
- effect on CRF-induced CREB phosphorylation [4, 19]: failed to block CRF-induced CREB phosphorylation; also recorded: not affected

Compound: PKI, 14–22 amide: cell permeable peptide PKA inhibitor (SGRTGRRNA-NH2; not fully specified (N-terminus); also: myristoylated, site not given here; UniProt P61925 14-22, looked up, fragment)
- Ki [15]: 36 nM
- effect on CRF-induced CREB phosphorylation [4, 20]: failed to eliminate CRF-induced CREB phosphorylation

Compound: COc1ccc(S(=O)(=O)N(CCO)c2ccccc2CN(C)C/C=C/c2ccc(Cl)cc2)cc1 [KN-93]
- effect on CRF-induced CREB phosphorylation ([4]; inhibitor 2 µM, 30 min prior and concurrently, CRF 15 min): had no effect on CRF-induced CREB phosphorylation; also recorded: did not affect CRF-induced CREB phosphorylation
- effect on depolarization-induced CREB phosphorylation [16]: blocks depolarization-induced CREB phosphorylation

Compound: pertussis toxin [PTX]
- effect on CRF-induced CREB phosphorylation ([4]; PTX overnight (18 hr) pretreatment, 0.5 µng/µL, 500 ng/mL): did not alter CRF-mediated CREB phosphorylation; also recorded: did not affect CRF-induced pCREB

Compound: CCCCN(CC)c1nc(C)nc2c1c(C)cn2-c1c(C)cc(C)cc1C [CP154526]
- Ki [9]: > 10000 nM
- effect on CRF-induced CREB phosphorylation [4, 23]: eliminated CRF-induced CREB phosphorylation; also recorded: blocked
- effect on STR-induced CREB phosphorylation [17]: blocked
- Ki [10]: 2.7 nM

Compound: Corticotropin releasing factor (from UniProt P06850)
- Kd [18]: 7.5 nM

Compound: C=C[C@@]1(C)CC(=O)[C@]2(O)[C@@]3(C)[C@@H](O)CCC(C)(C)[C@@H]3[C@H](O)[C@H](OC(C)=O)[C@@]2(C)O1 [forskolin]
- CREB phosphorylation ([7]; AC agonist, 25 µM): CREB phosphorylation stimulated

Compound: COc1cccc(-c2cc(=O)c3ccccc3o2)c1N [PD98059]
- effect on CRF-induced CREB phosphorylation ([4]; inhibitor 25 µM, 30 min prior and concurrently, CRF 15 min, data not shown): yielded a similar result

Compound: Cc1cncc2cccc(S(=O)(=O)N3CCCNC[C@@H]3C)c12 [H-1152]
- effect on CRF-induced CREB phosphorylation [4, 21]: failed to affect CRF-induced CREB phosphorylation

Compound: COC(=O)C1=C(C)NC(C)=C(C(=O)OC)C1c1ccccc1[N+](=O)[O-] [nifedipine]
- effect on CRF-induced CREB phosphorylation [4, 19]: had no effect on CRF-induced CREB phosphorylation; also recorded: not affected

Compound: CCN(CC)CC.Nc1ncnc2c1ncn2[C@@H]1O[C@@H]2COP(O)(=S)O[C@H]2[C@H]1O (stereo partly shown) [cAMPS-Rp, triethylammonium salt]
- EC50 [15]: 11 to 16 µM
- effect on CRF-induced CREB phosphorylation [4, 22]: failed to eliminate CRF-induced CREB phosphorylation
